Measured values as given in ChEMBL document CHEMBL4321881 (J Med Chem, 2020).
Values after ≈ are worked out from the molar mass of the structure shown.

How the values were obtained:
[1] = Solubility of the compound; type: physicochemical
[2] = Metabolic stability in human liver microsomes assessed as parent compound remaining after 30 mins; type: ADME, Microsome; conditions: read-out: Stability
[3] = Metabolic stability in mouse liver microsomes assessed as parent compound remaining after 30 mins; type: ADME, Microsome; conditions: read-out: Stability
[4] = target: T1, Isocitrate dehydrogenase [NADP] cytoplasmic (Homo sapiens, UniProt O75874, R132C); test: Inhibition of recombinant human Myc-DDK-tagged IDH1 R132C mutant using alpha-ketoglutarate as substrate preincubated for 15 mins followed by substrate and NADPH addition and measured after 45 mins by diaphorase/resazurin dye based assay
Target sequence in this assay (O75874 2-414 R132C limits assumed): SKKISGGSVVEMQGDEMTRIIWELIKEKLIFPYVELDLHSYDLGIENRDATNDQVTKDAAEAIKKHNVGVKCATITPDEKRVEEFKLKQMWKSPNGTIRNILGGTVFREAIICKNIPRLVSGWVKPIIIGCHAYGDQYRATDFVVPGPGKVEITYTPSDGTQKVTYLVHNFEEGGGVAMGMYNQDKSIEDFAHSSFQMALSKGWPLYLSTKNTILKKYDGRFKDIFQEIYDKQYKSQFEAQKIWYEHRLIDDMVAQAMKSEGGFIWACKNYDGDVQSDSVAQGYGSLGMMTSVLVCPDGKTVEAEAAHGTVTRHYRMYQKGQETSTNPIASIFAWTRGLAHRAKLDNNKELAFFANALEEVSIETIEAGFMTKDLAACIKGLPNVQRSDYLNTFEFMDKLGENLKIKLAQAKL

[5] = target: T2, Isocitrate dehydrogenase [NADP] cytoplasmic (Homo sapiens, UniProt O75874, R132H); test: Inhibition of recombinant human Myc-DDK-tagged IDH1 R132H mutant using alpha-ketoglutarate as substrate preincubated for 15 mins followed by substrate and NADPH addition and measured after 45 mins by diaphorase/resazurin dye based assay
Target sequence in this assay (O75874 2-414 R132H limits assumed): as the sequence (O75874 2-414 R132C limits assumed) above, with C131H counted along it

[6] = target: T2, Isocitrate dehydrogenase [NADP] cytoplasmic; test: Inhibition of IDH1 R132H mutant in human HCT116 cells assessed as reduction in 2-HG levels after 24 hrs by RapidFire high-throughput mass spectrometry assay; type: cell-based
Target sequence in this assay (O75874 whole entry R132H): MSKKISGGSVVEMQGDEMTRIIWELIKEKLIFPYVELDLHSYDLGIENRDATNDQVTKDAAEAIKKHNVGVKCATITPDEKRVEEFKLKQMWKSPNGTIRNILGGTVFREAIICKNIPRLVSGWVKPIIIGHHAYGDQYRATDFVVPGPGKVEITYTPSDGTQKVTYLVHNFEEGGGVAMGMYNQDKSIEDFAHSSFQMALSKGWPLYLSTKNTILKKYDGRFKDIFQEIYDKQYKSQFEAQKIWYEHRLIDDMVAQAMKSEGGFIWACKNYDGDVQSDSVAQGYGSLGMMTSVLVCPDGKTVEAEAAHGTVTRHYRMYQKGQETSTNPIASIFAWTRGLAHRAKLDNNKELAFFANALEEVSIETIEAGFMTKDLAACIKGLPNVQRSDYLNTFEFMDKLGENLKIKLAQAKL

[7] = target: T1, Isocitrate dehydrogenase [NADP] cytoplasmic; test: Inhibition of IDH1 R132C mutant in human HCT116 cells assessed as reduction in 2-HG levels after 24 hrs by RapidFire high-throughput mass spectrometry assay; type: cell-based
Target sequence in this assay (O75874 whole entry R132C): as the sequence (O75874 whole entry R132H) above, with H132C counted along it

Mus musculus [8] = test: In vivo inhibition of IDH1 R132H mutant in human HCT116 cells xenografted in BALB/c nude mouse assessed as reduction in tumor 2-HG level at 50 mg/kg, po administered at 12 hrs intervals for 3 times measured up to 24 hrs post-last dose by LC-MS analysis relative to control; type: functional; conditions: HCT-116, po
Mus musculus [9] = test: In vivo inhibition of IDH1 R132C mutant in human HCT116 cells xenografted in BALB/c nude mouse assessed as reduction in tumor 2-HG level at 50 mg/kg, po administered at 12 hrs intervals for 3 times measured at 12 to 24 hrs post-last dose by LC-MS analysis relative to control; type: functional; conditions: HCT-116, po
Mus musculus [10] = test: In vivo inhibition of IDH1 R132H mutant in human HCT116 cells xenografted in po dosed BALB/c nude mouse assessed as reduction in tumor 2-HG level administered at 12 hrs intervals for 3 times measured up to 24 hrs post-last dose by LC-MS analysis; type: functional
Mus musculus [11] = test: In vivo inhibition of IDH1 R132C mutant in human HCT116 cells xenografted in po dosed BALB/c nude mouse assessed as reduction in tumor 2-HG level administered at 12 hrs intervals for 3 times measured up to 24 hrs post-last dose by LC-MS analysis; type: functional
[12] = Free Cmax in CD1 mouse at 100 mg/kg, po administered as single dose; type: ADME, organism-based; conditions: in vivo
[13] = Free Cmax in CD1 mouse at 100 mg/kg, po administered as single dose measured after 7 hrs; type: ADME, organism-based; conditions: in vivo
[14] = Time at which fCmax required to show >90% suppression of 2-HG level in human HCT116 cells xenografted BALB/c nude mouse in CD1 mouse at 100 mg/kg, po; type: ADME, organism-based; conditions: in vivo
[15] = Permeability of the compound by PAMPA; type: ADME; conditions: read-out: permeability
[16] = Apparent permeability across basolateral to apical side in human Caco2 cells; type: ADME, cell-based; conditions: caco-2
[17] = Apparent permeability across apical to basolateral side in human Caco2 cells; type: ADME, cell-based; conditions: caco-2
[18] = Kinetic solubility of the compound at pH 7.4; type: physicochemical; conditions: buffer, read-out: Kinetic_solubility

Structure (SMILES)	solubility [1] [µM]	remaining at 0.5 h [2] [%]	remaining at 0.5 h [3] [%]	IC50 [5] [nM]	further results
COc1cc2[nH]c(=O)c([C@H](C)Nc3ccc(C#N)n(C)c3=O)cc2cc1Cl	11.6 (≈ 4.46 µg/mL)	83			
C[C@H](Nc1ccc(C#N)n(C)c1=O)c1cc2cc(Cl)c(F)cc2[nH]c1=O	18 (≈ 6.71 µg/mL)	100		25	IC50 [4]: 159 nM; IC50 [6]: 22 nM; IC50 [7]: 104 nM
N#Cc1ccc(NCc2cc3cc(Cl)ccc3[nH]c2=O)c(=O)[nH]1	2.21 (≈ 0.722 µg/mL)	100	86	64.7	
C[C@H](Nc1ccc(C#N)n(C)c1=O)c1cc2cc(Cl)c(OCC3CC3)cc2[nH]c1=O	0.53 (≈ 0.225 µg/mL)	82			
C[C@H](Nc1ccc(C#N)n(C)c1=O)c1cc2cc(Cl)c(OCc3ccccn3)cc2[nH]c1=O	2.5 (≈ 1.15 µg/mL)	66			
C[C@H](Nc1ccc(C#N)n(C)c1=O)c1cc2cc(Cl)c(O[C@H](C)c3ccccn3)cc2[nH]c1=O	1.6 (≈ 0.761 µg/mL)	70			
COc1cccc(NCc2cc3cc(Cl)ccc3[nH]c2=O)c1	0.28 (≈ 0.0881 µg/mL)	78	19	> 25000	
CN1CCCC(NCc2cc3cc(Cl)ccc3[nH]c2=O)C1=O (stereo unspecified)	94 (≈ 30.1 µg/mL)	99	83	25000	
C[C@H](Nc1ccc(C#N)n(C)c1=O)c1cc2cc(Cl)ccc2[nH]c1=O [OLUTASIDENIB]	34.5 (≈ 12.2 µg/mL)	100	92		inhibition in vivo at 50 mg/kg (Mus musculus [8]): > 90%; inhibition in vivo at 50 mg/kg (Mus musculus [9]): > 90%; fIC50 (Mus musculus [10]): 26 nM; fIC50 (Mus musculus [11]): 36 nM; fCmax [12]: 200 nM; fCmax [13]: 130 nM; Time [14]: 7 h; Papp [15]: 19.9 ×10⁻⁶ cm/s; Papp [16]: 9.01 ×10⁻⁶ cm/s; Papp [17]: 12.12 ×10⁻⁶ cm/s; solubility kinetic [18]: 35.4 µM (≈ 12.6 µg/mL)

Now from value to compound, other results behind:

solubility [1] [µM]	remaining at 0.5 h [2] [%]	remaining at 0.5 h [3] [%]	IC50 [5] [nM]	Structure (SMILES)	further results
54 (≈ 17.1 µg/mL)	90	26		Cn1cccc(NCc2cc3cc(Cl)ccc3[nH]c2=O)c1=O	
56 (≈ 19.1 µg/mL)	78	7		O=c1[nH]c2ccc(Cl)cc2cc1CNc1cccn(C2CC2)c1=O	
< 0.1	85	67	160	Cn1c(C(F)(F)F)ccc(NCc2cc3cc(Cl)ccc3[nH]c2=O)c1=O	
0.295 (≈ 0.101 µg/mL)	99	73		Cn1c(C#N)ccc(NCc2cc3cc(Cl)ccc3[nH]c2=O)c1=O	
10 (≈ 3.3 µg/mL)	72	7		CCn1cccc(NCc2cc3cc(Cl)ccc3[nH]c2=O)c1=O	
